Experiments:
Assay type in all cases: in vivo
[1] = tested on: Abutilon theophrasti (ABUTH); assay: Herbicidal pre-emergence action (A), 1280 g/ha; settings: visual grading after ca. 3 weeks vs untreated controls, 100% = plants have died off, 0% = as control plants
Outline: (§1)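 Pre-emergence soil-surface spray, 600 l/ha water, 0.5% additive, WP or EC formulation. Sandy loam, double sowing per pot, greenhouse under optimum growth. Visual % damage at ~3 wk vs untreated; 100% = plants died off.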

[2] = tested on: Alopecurus myosuroides (ALOMY); assay: Herbicidal pre-emergence action (A), 1280 g/ha; settings: visual grading after ca. 3 weeks vs untreated controls, 100% = plants have died off, 0% = as control plants
Outline: as §1

[3] = tested on: Amaranthus retroflexus (AMARE); assay: Herbicidal pre-emergence action (A), 1280 g/ha; settings: visual grading after ca. 3 weeks vs untreated controls
Outline: as §1

[4] = tested on: Digitaria sanguinalis (DIGSA); assay: Herbicidal pre-emergence action (A), 1280 g/ha; settings: visual grading after ca. 3 weeks vs untreated controls, 100% = plants have died off, 0% = as control plants
Outline: as §1

[5] = tested on: Echinochloa crus-galli (ECHCG); assay: Herbicidal pre-emergence action (A), 1280 g/ha; settings: visual grading after ca. 3 weeks vs untreated controls, 100% = plants have died off, 0% = as control plants
Outline: as §1

[6] = tested on: Kochia scoparia (KCHSC; Bassia scoparia); assay: Herbicidal pre-emergence action (A), 1280 g/ha; settings: visual grading after ca. 3 weeks vs untreated controls
Outline: as §1

[7] = tested on: Lolium rigidum (LOLRI); assay: Herbicidal pre-emergence action (A), 1280 g/ha; settings: visual grading after ca. 3 weeks vs untreated controls, 100% = plants have died off, 0% = as control plants
Outline: as §1

[8] = tested on: Matricaria inodora (MATIN); assay: Herbicidal pre-emergence action (A), 1280 g/ha; settings: visual grading after ca. 3 weeks vs untreated controls
Outline: as §1

[9] = tested on: Poa annua (POAAN); assay: Herbicidal pre-emergence action (A), 1280 g/ha; settings: visual grading after ca. 3 weeks vs untreated controls, 100% = plants have died off, 0% = as control plants
Outline: as §1

[10] = tested on: Setaria viridis (SETVI); assay: Herbicidal pre-emergence action (A), 1280 g/ha; settings: visual grading after ca. 3 weeks vs untreated controls
Outline: as §1

[11] = tested on: Stellaria media (STEME); assay: Herbicidal pre-emergence action (A), 1280 g/ha; settings: visual grading after ca. 3 weeks vs untreated controls
Outline: as §1

[12] = tested on: Veronica persica (VERPE); assay: Herbicidal pre-emergence action (A), 1280 g/ha; settings: visual grading after ca. 3 weeks vs untreated controls
Outline: as §1

[13] = tested on: Matricaria inodora (MATIN); assay: Herbicidal pre-emergence action (C), 320 g/ha; settings: ca. 3 weeks
Outline: (§2)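 Seeds sown in sandy loam and covered with soil; compounds formulated as WP or EC were sprayed onto the covering soil as aqueous suspension/emulsion with 0.5% additive at 600 l water/ha. Pots kept in greenhouse; damage graded visually after ca. 3 weeks versus untreated controls (0% = as control, 100% = plants dead).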

[14] = tested on: Viola tricolor (VIOTR); assay: Herbicidal pre-emergence action (C), 320 g/ha; settings: ca. 3 weeks
Outline: as §2

[15] = tested on: Digitaria sanguinalis (DIGSA); assay: Herbicidal pre-emergence action (C), 320 g/ha; settings: ca. 3 weeks
Outline: (§3)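 Weed and crop seeds sown in sandy loam; WP or EC formulations applied pre-emergence to the soil surface as aqueous suspension/emulsion with 0.5% additive at 600 l water/ha. Greenhouse-grown under optimum conditions; damage visually scored after ca. 3 weeks versus untreated controls (0% = as control, 100% = plants dead).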

[16] = tested on: Polygonum convolvulus (POLCO); assay: Herbicidal pre-emergence action (C), 320 g/ha; settings: ca. 3 weeks
Outline: as §2

[17] = tested on: Setaria viridis (SETVI); assay: Herbicidal post-emergence action (D), 320 g/ha; settings: ca. 3 weeks
Outline: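 Post-emergence greenhouse test. Sandy loam; spray at single-leaf stage (2–3 wk after sowing); WP or EC in water + 0.5% additive, 600 l/ha. Visual rating ~3 wk post-spray, % effect vs untreated (0 = control, 100 = dead).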

[18] = tested on: Matricaria inodora (MATIN); assay: Herbicidal post-emergence action (B), 1280 g/ha; settings: rated visually after about 3 weeks vs untreated controls
Outline: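 Percent activity is a visual score taken about 3 weeks after treatment, relative to untreated plants, where 100% means the plants died and 0% means no difference from controls. Plants were sprayed on green parts at the one-leaf stage with an aqueous suspension or emulsion containing 0.5% additive at 600 L/ha.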

[19] = tested on: Abutilon theophrasti (ABUTH); assay: Herbicidal pre-emergence action (C), 320 g/ha; settings: ca. 3 weeks
Outline: as §2

[20] = tested on: Avena fatua; assay: Herbicidal pre-emergence action (C), 320 g/ha; settings: ca. 3 weeks
Outline: as §3

| Structure (SMILES) | ABUTH, herbicidal effect in percent (%) [1] | ALOMY, herbicidal effect in percent (%) [2] | herbicidal effect AMARE [3] | DIGSA, herbicidal effect in percent (%) [4] | ECHCG, herbicidal effect in percent (%) [5] | herbicidal effect KCHSC [6] | LOLRI, herbicidal effect in percent (%) [7] | herbicidal effect MATIN [8] | POAAN, herbicidal effect in percent (%) [9] | herbicidal effect SETVI [10] | herbicidal effect STEME [11] | herbicidal effect VERPE [12] | herbicidal effect MATIN [13] | herbicidal effect VIOTR [14] | herbicidal effect DIGSA [15] | herbicidal effect POLCO [16] | herbicidal effect SETVI [17] | herbicidal activity MATIN [18] | herbicidal effect ABUTH [19] | herbicidal effect AVEFA [20] |
| --- | --- | --- | --- | --- | --- | --- | --- | --- | --- | --- | --- | --- | --- | --- | --- | --- | --- | --- | --- | --- |
| COc1ccccc1-c1nc2ncsc2cc1C [Example I-124] | 100% | 100% | 100% | 100% | 100% | 100% | 100% | 100% | 100% | 100% | 100% | 100% | 80% | 90% | 100% | – | – | – | – | – |
| Cc1cc2scnc2nc1-c1cccc(F)c1 [Example I-003, 5-(3-fluorophenyl)-6-methyl-thiazolo[4,5-b]pyridine] | – | 90% | 90% | 100% | 100% | 100% | 100% | 90% | 100% | 100% | 90% | 90% | – | 80% | 100% | 80% | 80% | – | – | – |
| Fc1ccccc1-c1nc2ncsc2cc1C1CC1 [Example I-102] | 90% | 100% | 90% | 100% | 100% | 100% | 100% | 100% | 100% | 100% | 90% | 100% | – | 80% | – | – | 80% | 90% | – | – |
| Cc1cc2scnc2nc1-c1ccsc1C [Example I-194] | – | 100% | 100% | – | 100% | 100% | 100% | 100% | 100% | 100% | 100% | 100% | 90% | 90% | – | 90% | 80% | 100% | – | – |
| CCc1cc2scnc2nc1-c1ccccc1F [Example I-023] | 90% | 100% | 100% | 100% | 100% | 100% | 100% | 100% | 100% | 100% | 90% | 100% | 90% | 80% | 100% | 80% | 80% | – | 80% | – |
| Fc1ccccc1-c1nc2ncsc2cc1Cl [Example I-017] | 90% | 100% | 100% | 100% | 100% | 100% | 100% | 100% | 100% | 100% | 100% | 90% | 90% | – | 100% | 90% | 80% | – | 80% | 90% |
| Cc1cc2scnc2nc1-c1sccc1Cl [Example I-137] | 100% | 100% | 100% | 100% | 100% | 100% | 100% | 90% | 100% | 100% | 100% | 100% | 90% | 90% | 100% | – | – | 90% | – | 80% |
| Fc1ccccc1-c1ccc2scnc2n1 [Example I-036, 5-(2-fluorophenyl)thiazolo[4,5-b]pyridine] | – | – | 90% | – | 100% | – | 100% | 90% | 100% | 100% | 90% | – | 100% | 100% | 100% | 90% | 80% | 100% | 90% | 100% |
| Fc1ccccc1-c1nc2ncsc2cc1I [Example I-188] | – | 100% | – | – | 100% | 90% | 100% | 90% | 100% | 100% | 90% | 90% | – | – | – | 80% | 100% | 90% | 80% | 100% |
| CCc1cc2scnc2nc1-c1ccccc1 [Example I-051] | 90% | 100% | – | 100% | 100% | 90% | 100% | 90% | 100% | 100% | 90% | 90% | 90% | 100% | 100% | 80% | 80% | 100% | 90% | 90% |
| Cc1cc2scnc2nc1-c1ccccc1Cl [Example I-045] | 90% | 100% | 100% | 100% | 100% | 100% | 100% | 100% | 100% | 100% | 100% | 100% | – | 80% | 100% | 80% | 80% | – | 80% | 90% |
